In US11345694B2, “Antibacterial compounds” (DISCUVA LTD., priority 2017, dated 2022):
In brackets after ≈: the same amount, converted by molar mass. Where two headings read alike, the source gives them in different places.

Columns and labels:
[1] = test system: Pseudomonas aeruginosa ATCC 33359 (PA); experiment: MIC broth microdilution; type: cell-based; conditions: for MIC: ATCC33359
Outline: (§1)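 Following CLSI standards, susceptibility is measured in cation-adjusted Müller-Hinton broth at 37° C without added CO2 for 20-24 hours. Test concentrations run 0.39-200 μM final in doubling steps, DMSO capped at 2%. MIC: lowest concentration without bacterial growth.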

[2] = test system: Klebsiella pneumoniae ATCC 51504 (KP4); experiment: MIC broth microdilution; type: cell-based; conditions: ATCC51504
Outline: as §1

[3] = test system: Acinetobacter baumannii ATCC 17978 (AB); experiment: MIC broth microdilution; type: cell-based; conditions: for MIC: ATCC17978
Outline: as §1

[4] = test system: Klebsiella pneumoniae ATCC 10031 (KP2); experiment: MIC broth microdilution; type: cell-based; conditions: for MIC: ATCC10031
Outline: (§2)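 Planktonic MIC determination: compound tested two-fold from 200 down to 0.39 μM final with DMSO capped at 2% final, cation-adjusted Müller-Hinton broth, 37° C for 20-24 hours. Endpoint is the lowest concentration inhibiting growth.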

[5] = test system: Staphylococcus aureus ATCC 35556 (SA); experiment: MIC broth microdilution; type: cell-based; conditions: for MIC: ATCC35556
Outline: as §1

[6] = test system: Escherichia coli K12 (EC); experiment: MIC broth microdilution; type: cell-based
Outline: as §1

[7] = test system: E. coli NCTC 13441 (UPEC); experiment: MIC broth microdilution; type: cell-based, Escherichia coli; conditions: for MIC: Escherichia coli, NCTC13441
Outline: as §1

[8] = test system: K. pneumoniae H154020667 (KP6); experiment: MIC broth microdilution; type: cell-based, Klebsiella pneumoniae; conditions: for MIC: Klebsiella pneumoniae
Outline: as §2

[9] = test system: K. pneumoniae H151440671 (KP10); experiment: MIC broth microdilution; type: cell-based, Klebsiella pneumoniae; conditions: for MIC: Klebsiella pneumoniae
Outline: as §2

[10] = test system: K. pneumoniae H154680676 (KP5); experiment: MIC broth microdilution; type: cell-based, Klebsiella pneumoniae; conditions: for MIC: Klebsiella pneumoniae
Outline: as §2

[11] = test system: K. pneumoniae H154300688 (KP9); experiment: MIC broth microdilution; type: cell-based, Klebsiella pneumoniae; conditions: for MIC: Klebsiella pneumoniae
Outline: as §2

[12] = test system: K. pneumoniae ATCC 700603 (KP3); experiment: MIC broth microdilution; type: cell-based, Klebsiella pneumoniae; conditions: for MIC: Klebsiella pneumoniae, ATCC700603
Outline: as §2

[13] = test system: K. pneumoniae H154640784 (KP7); experiment: MIC broth microdilution; type: cell-based, Klebsiella pneumoniae; conditions: for MIC: Klebsiella pneumoniae
Outline: as §2

[14] = test system: K. pneumoniae H154600588 (KP8); experiment: MIC broth microdilution; type: cell-based, Klebsiella pneumoniae; conditions: for MIC: Klebsiella pneumoniae
Outline: as §2

[15] = test system: K. pneumoniae NCTC 13438 (KP1); experiment: MIC broth microdilution; type: cell-based, Klebsiella pneumoniae; conditions: for MIC: Klebsiella pneumoniae, NCTC13438
Outline: as §2

[16] = test system: human hepatocarcinoma cell line ATCC HB-8065 (HepG2); experiment: Human cell viability (CellTiter-Glo); type: cell-based; conditions: HepG2 cells, 24 h incubation, CellTiter-Glo luminescence, 0.2-100 μM, read-out: IC50 values against the HepG2 cell line
Outline: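 Cytotoxicity was read as CellTiter-Glo luminescence after 24 h compound exposure at 37° C., 5% CO2. Final concentrations spanned 0.2-100 μM in two-fold steps, in 1% FBS MEM with 1% DMSO, on cells plated a day earlier at 20,000/well. IC50 came from 4-parameter logistic regression.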

SMILES | MIC [1] [µM] | MIC [2] [µM] | MIC [3] [µM] | MIC [4] [µM] | MIC [5] [µM] | MIC [6] [µM] | MIC [7] [µM] | MIC [8] [µM] | MIC [9] [µM] | MIC [10] [µM] | MIC [11] [µM] | MIC [12] [µM] | MIC [13] [µM] | MIC [14] [µM] | MIC [15] [µM] | IC50 ([16]; Homo sapiens) [µM] | other results
Cc1cc(-c2[nH]c(N)nc2-c2cc(F)c3c(c2)NCCO3)ccn1 [Example 49, 4-(8-Fluoro-3,4-dihydro-2H-benzo[b][1,4]oxazin-6-yl)-5-(2-methylpyridin-4-yl)-1H-imidazol-2-amine] | > 100 | ≤ 1 | > 100 | ≤ 1 | > 100 | ≤ 1 | 1 to 10 (≈ 0.325 to 3.25 µg/mL) | ≤ 1 | 1 to 10 (≈ 0.325 to 3.25 µg/mL) | ≤ 1 | 1 to 10 (≈ 0.325 to 3.25 µg/mL) | 1 to 10 (≈ 0.325 to 3.25 µg/mL) | 1 to 10 (≈ 0.325 to 3.25 µg/mL) | 1 to 10 (≈ 0.325 to 3.25 µg/mL) | 1 to 10 (≈ 0.325 to 3.25 µg/mL) | > 100 | –
Nc1nc(-c2ccc3c(c2)NCCO3)c(-c2ccnc(Cl)c2)[nH]1 [Example 45, 5-(2-Chloropyridin-4-yl)-4-(3,4-dihydro-2H-benzo[b][1,4]oxazin-6-yl)-1H-imidazol-2-amine] | > 100 | 1 to 10 (≈ 0.328 to 3.28 µg/mL) | > 100 | ≤ 1 | > 100 | ≤ 1 | ≤ 1 | 1 to 10 (≈ 0.328 to 3.28 µg/mL) | 1 to 10 (≈ 0.328 to 3.28 µg/mL) | 1 to 10 (≈ 0.328 to 3.28 µg/mL) | 1 to 10 (≈ 0.328 to 3.28 µg/mL) | 1 to 10 (≈ 0.328 to 3.28 µg/mL) | 1 to 10 (≈ 0.328 to 3.28 µg/mL) | 10 to 100 (≈ 3.28 to 32.8 µg/mL) | 1 to 10 (≈ 0.328 to 3.28 µg/mL) | > 100 | –
CCN1CCOc2ccc(-c3nc(N)[nH]c3-c3ccnc(C)c3)cc21 [Example 57, 4-(4-Ethyl-3,4-dihydro-2H-benzo[b][1,4]oxazin-6-yl)-5-(2-methylpyridin-4-yl)-1H-imidazol-2-amine] | > 100 | ≤ 1 | > 100 | ≤ 1 | > 100 | ≤ 1 | 1 to 10 (≈ 0.335 to 3.35 µg/mL) | ≤ 1 | ≤ 1 | ≤ 1 | 1 to 10 (≈ 0.335 to 3.35 µg/mL) | 1 to 10 (≈ 0.335 to 3.35 µg/mL) | 1 to 10 (≈ 0.335 to 3.35 µg/mL) | 1 to 10 (≈ 0.335 to 3.35 µg/mL) | 1 to 10 (≈ 0.335 to 3.35 µg/mL) | > 100 | –
Cc1cc(-c2[nH]c(N)nc2-c2ccc3c(c2)OCCO3)ccn1 [Example 32, 4-(2,3-Dihydrobenzo[b][1,4]dioxin-6-yl)-5-(2-methylpyridin-4-yl)-1H-imidazol-2-amine] | – | 1 to 10 (≈ 0.308 to 3.08 µg/mL) | – | – | – | – | – | – | – | – | – | – | – | – | – | – | MIC PA [1]: D (a MIC of over 100 is assigned the letter D); MIC AB [3]: D (a MIC of over 100 is assigned the letter D); MIC KP2 [4]: A (an MIC (μM) of less or equal to 1 is assigned the letter A); MIC SA [5]: D (a MIC of over 100 is assigned the letter D); MIC EC [6]: A (an MIC (μM) of less or equal to 1 is assigned the letter A); MIC UPEC [7]: A (an MIC (μM) of less or equal to 1 is assigned the letter A); MIC KP6 [8]: B (a MIC of from 1 to 10 is assigned the letter B); MIC KP10 [9]: B (a MIC of from 1 to 10 is assigned the letter B); MIC KP5 [10]: B (a MIC of from 1 to 10 is assigned the letter B); MIC KP9 [11]: B (a MIC of from 1 to 10 is assigned the letter B); MIC KP3 [12]: B (a MIC of from 1 to 10 is assigned the letter B); MIC KP7 [13]: B (a MIC of from 1 to 10 is assigned the letter B); MIC KP8 [14]: B (a MIC of from 1 to 10 is assigned the letter B); MIC KP1 [15]: B (a MIC of from 1 to 10 is assigned the letter B); IC50 [16]: > 100 µM
Cc1cc(-c2[nH]c(N)nc2-c2ccc3c(c2)N(C(C)C)CCO3)ccn1 [Example 93, 4-(4-isopropyl-3,4-dihydro-2H-benzo[b][1,4]oxazin-6-yl)-5-(2-methylpyridin-4-yl)-1H-imidazol-2-amine] | > 100 | ≤ 1 | > 100 | ≤ 1 | > 100 | ≤ 1 | ≤ 1 | ≤ 1 | ≤ 1 | ≤ 1 | 1 to 10 (≈ 0.349 to 3.49 µg/mL) | 1 to 10 (≈ 0.349 to 3.49 µg/mL) | 1 to 10 (≈ 0.349 to 3.49 µg/mL) | 1 to 10 (≈ 0.349 to 3.49 µg/mL) | 1 to 10 (≈ 0.349 to 3.49 µg/mL) | 25 to 100 | –
Cc1cc(-c2[nH]c(N)nc2-c2cc3c(cc2F)OCCN3)ccn1 [Example 52, 4-(7-Fluoro-3,4-dihydro-2H-benzo[b][1,4]oxazin-6-yl)-5-(2-methylpyridin-4-yl)-1H-imidazol-2-amine] | > 100 | ≤ 1 | > 100 | ≤ 1 | > 100 | ≤ 1 | ≤ 1 | ≤ 1 | ≤ 1 | ≤ 1 | 1 to 10 (≈ 0.325 to 3.25 µg/mL) | 1 to 10 (≈ 0.325 to 3.25 µg/mL) | 1 to 10 (≈ 0.325 to 3.25 µg/mL) | 1 to 10 (≈ 0.325 to 3.25 µg/mL) | 1 to 10 (≈ 0.325 to 3.25 µg/mL) | > 100 | –
